According to patent US11180462B2, “Microbiocidal oxadiazole derivatives” (SYNGENTA PARTICIPATIONS AG, priority 2015, dated 2021):

Experiments:
[1] = test system: Puccinia recondita f. Sp. Tritici; assay: Fungicidal activity against Puccinia recondita f. sp. tritici / wheat / leaf disc curative (brown rust); type: in vivo; settings: foliar, 24 h, 200 ppm in the applied formulation, wheat leaf segments, curative (applied 1 day after inoculation), compared to untreated control leaf disks, read-out: disease control
Method in brief: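 Curative test on wheat leaf segments (cv. Kanzler) on agar, inoculated with spore suspension and held dark at 19° C, 75% RH; formulated compound in water applied 1 day after inoculation. Incubated at 19° C, 75% RH, 12 h light/12 h dark; percent disease control versus untreated scored 6 to 8 days after application.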

[2] = test system: Puccinia recondita f. Sp. Tritici; assay: Fungicidal activity against Puccinia recondita f. sp. tritici / wheat / leaf disc preventative (brown rust); type: in vivo; settings: foliar, 200 ppm in the applied formulation, wheat leaf segments, preventative, compared to untreated control leaf disks, read-out: disease control
Method in brief: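 Percent disease control relative to untreated check segments is scored once disease develops, 7 to 9 days after application. Wheat cv. Kanzler segments receive compound spray (200 ppm in formulation) one day before spore inoculation, then sit at 19° C. and 75% rh under 12 h light/12 h dark.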

[3] = test system: Glomerella lagenarium (Colletotrichum lagenarium); assay: Fungicidal activity against Glomerella lagenarium (Colletotrichum lagenarium) liquid culture / cucumber / preventative (anthracnose); type: cell-based; settings: Colletotrichum orbiculare; 20 ppm in the applied formulation; liquid culture (PDB), growth inhibition measured photometrically after 3 to 4 days; compared to untreated control; read-out: disease control
Method in brief: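 Percent activity against the untreated check was derived from photometric growth measurements made 2 to 7 days after conidia in potato dextrose broth were combined with compound at 20 ppm. Cultures were kept dark at 24 °C and 96% humidity.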

CON(C(=O)COC(C)=O)C(C)c1ccc(-c2noc(C(F)(F)F)n2)cc1 (stereo not drawn) [Compound 1.270, [2-[methoxy-[1-[4-[5-(trifluoromethyl)-1,2,4-oxadiazol-3-yl]phenyl]ethyl]-amino]-2-oxo-ethyl] acetate]
≥ 80%: pest or weed control at 200 ppm [1] | pest or weed control at 200 ppm [2] | inhibition of growth at 20 ppm [3]

CON(C(=O)C1CSC1)C(C)c1ccc(-c2noc(C(F)(F)F)n2)cc1 (stereo not drawn) [Compound 1.259, N-methoxy-N-[1-[4-[5-(trifluoromethyl)-1,2,4-oxadiazol-3-yl]phenyl]ethyl]-thietane-3-carboxamide]
≥ 80%: pest or weed control at 200 ppm [1] | pest or weed control at 200 ppm [2] | inhibition of growth at 20 ppm [3]

C=CCN(C)C(=O)N(CC)Cc1ccc(-c2noc(C(F)(F)F)n2)cc1 [Compound 3.97, 1-allyl-3-ethyl-1-methyl-3-[[4-[5-(trifluoromethyl)-1,2,4-oxadiazol-3-yl]phenyl]methyl]urea]
≥ 80%: pest or weed control at 200 ppm [1] | pest or weed control at 200 ppm [2] | inhibition of growth at 20 ppm [3]

C#CCN(C(=O)N(C)Cc1ccc(-c2noc(C(F)(F)F)n2)cc1)C1CC1 [Compound 3.80, 1-cyclopropyl-3-methyl-1-prop-2-ynyl-3-[[4-[5-(trifluoromethyl)-1,2,4-oxadiazol-3-yl]phenyl]methyl]urea]
≥ 80%: pest or weed control at 200 ppm [1] | pest or weed control at 200 ppm [2] | inhibition of growth at 20 ppm [3]

COCCOCC(=O)N(CCOC)Cc1ccc(-c2noc(C(F)(F)F)n2)cc1 [Compound 1.340, 2-(2-methoxyethoxy)-N-(2-methoxyethyl)-N-[[4-[5-(trifluoromethyl)-1,2,4-oxadiazol-3-yl]phenyl]methyl]-acetamide]
≥ 80%: pest or weed control at 200 ppm [1] | pest or weed control at 200 ppm [2] | inhibition of growth at 20 ppm [3]

CC=C(C)C(=O)N(Cc1ccc(-c2noc(C(F)(F)F)n2)cc1)CC1CCCO1 (stereo not drawn) [Compound 1.417, 2-methyl-N-(tetrahydrofuran-2-ylmethyl)-N-[[4-[5-(trifluoromethyl)-1,2,4-oxadiazol-3-yl]phenyl]methyl]but-2-enamide]
≥ 80%: pest or weed control at 200 ppm [1] | pest or weed control at 200 ppm [2] | inhibition of growth at 20 ppm [3]

CCC(COC)C(=O)N(Cc1ccc(-c2noc(C(F)(F)F)n2)cc1)CC1CC1 (stereo not drawn) [Compound 1.237, N-(cyclopropylmethyl)-2-(methoxymethyl)-N-[[4-[5-(trifluoromethyl)-1,2,4-oxadiazol-3-yl]phenyl]methyl]-butanamide]
≥ 80%: pest or weed control at 200 ppm [1] | pest or weed control at 200 ppm [2] | inhibition of growth at 20 ppm [3]

CCCON(Cc1ccc(-c2noc(C(F)(F)F)n2)cc1)C(=O)C(C)CC (stereo not drawn) [Compound 1.308, 2-methyl-N-propoxy-N-[[4-[5-(trifiuoromethyl)-1,2,4-oxadiazol-3-yl]phenyl]methyl]-butanamide]
≥ 80%: pest or weed control at 200 ppm [1] | pest or weed control at 200 ppm [2] | inhibition of growth at 20 ppm [3]

CCN(CC1CC1)C(=O)N(C)Cc1ccc(-c2noc(C(F)(F)F)n2)cc1 [Compound 3.81, 1-(cyclopropylmethyl)-1-ethyl-3-methyl-3-[[4-[5-(trifluoromethyl)-1,2,4-oxadiazol-3-yl]phenyl]methyl]urea]
≥ 80%: pest or weed control at 200 ppm [1] | pest or weed control at 200 ppm [2] | inhibition of growth at 20 ppm [3]

CCOC(=O)CN(C)C(=O)N(CC)Cc1ccc(-c2noc(C(F)(F)F)n2)cc1 [Compound 3.92, ethyl 2-[[ethyl-[[4-[5-(trifluoromethyl)-1,2,4-oxadiazol-3-yl]phenyl]methyl]-carbamoyl]-methyl-amino]acetate]
≥ 80%: pest or weed control at 200 ppm [1] | pest or weed control at 200 ppm [2] | inhibition of growth at 20 ppm [3]

CC(=O)OCC(=O)N(Cc1ccc(-c2noc(C(F)(F)F)n2)cc1)CC1CCCO1 (stereo not drawn) [Compound 1.435, [2-oxo-2-[tetrahydrofuran-2-ylmethyl-[[4-[5-(trifluoromethyl)-1,2,4-oxadiazol-3-yl]phenyl]methyl]-amino]ethyl] acetate]
≥ 80%: pest or weed control at 200 ppm [1] | pest or weed control at 200 ppm [2] | inhibition of growth at 20 ppm [3]

CCC(C)N(Cc1ccc(-c2noc(C(F)(F)F)n2)cc1)C(=O)CC1CC1 (stereo not drawn) [Compound 1.375, 2-cyclopropyl-N-sec-butyl-N-[[4-(5-(trifluoromethyl)-1,2,4-oxadiazol-3-yl]phenyl]methyl]-acetamide]
≥ 80%: pest or weed control at 200 ppm [1] | pest or weed control at 200 ppm [2] | inhibition of growth at 20 ppm [3]

CCCN(C)C(=O)N(C)Cc1ccc(-c2noc(C(F)(F)F)n2)cc1 [Compound 3.75, 1,3-dimethyl-1-propyl-3-[[4-[5-(trifluoromethyl)-1,2,4-oxadiazol-3-yl]phenyl]methyl]urea]
≥ 80%: pest or weed control at 200 ppm [1] | pest or weed control at 200 ppm [2] | inhibition of growth at 20 ppm [3]

COCCN(Cc1ccc(-c2noc(C(F)(F)F)n2)cc1)C(=O)C1CSC1 [Compound 1.334]
≥ 80%: pest or weed control at 200 ppm [1] | pest or weed control at 200 ppm [2] | inhibition of growth at 20 ppm [3]

CON(Cc1ccc(-c2noc(C(F)(F)F)n2)cc1)C(=O)COC(F)F [Compound 1.785, 2-(difuoromethoxy)-N-methoxy-N-[[4-[5-(trifluoromethyl)-1,2,4-oxadiazol-3-yl]phenyl]methyl]-acetamide]
≥ 80%: pest or weed control at 200 ppm [1] | pest or weed control at 200 ppm [2] | inhibition of growth at 20 ppm [3]

CON(Cc1ccc(-c2noc(C(F)(F)F)n2)cc1)C(=O)C(C)NC(C)=O (stereo not drawn) [Compound 1.795, 2-acetamido-N-methoxy-N-[[4-[5-(trifluoromethyl)-1,2,4-oxadiazol-3-yl]phenyl]methyl]-propanamide]
≥ 80%: pest or weed control at 200 ppm [1] | pest or weed control at 200 ppm [2] | inhibition of growth at 20 ppm [3]

CC(=O)N(Cc1ccc(-c2noc(C(F)(F)F)n2)cc1)CC1CCCO1 (stereo not drawn) [Compound 1.451, N-(tetrahydrofuran-2-ylmethyl)-N-[[4-[5-(trifluoromethyl)-1,2,4-oxadiazol-3-yl]phenyl]methyl]-acetate]
≥ 80%: pest or weed control at 200 ppm [1] | pest or weed control at 200 ppm [2] | inhibition of growth at 20 ppm [3]

COCCC(=O)N(OC)C(C)c1ccc(-c2noc(C(F)(F)F)n2)cc1 (stereo not drawn) [Compound 1.260, N,3-dimethoxy-N-[1-[4-[5-(trifluoromethyl)-1,2,4-oxadiazol-3-yl]phenyl]ethyl]-propanamide]
≥ 80%: pest or weed control at 200 ppm [1] | pest or weed control at 200 ppm [2] | inhibition of growth at 20 ppm [3]

CCN(C(=O)N(C)Cc1ccc(-c2noc(C(F)(F)F)n2)cc1)C1CC1 [Compound 3.71, 1-cyclopropyl-1-ethyl-3-methyl-3-[[4-[5-(trifluoromethyl)-1,2,4-oxadiazol-3-yl]phenyl]methyl]urea]
≥ 80%: pest or weed control at 200 ppm [1] | pest or weed control at 200 ppm [2] | inhibition of growth at 20 ppm [3]

COCC1(N(C)C(=O)N(C)Cc2ccc(-c3noc(C(F)(F)F)n3)cc2)CC1 [Compound 3.76, 1-[1-(methoxymethyl)-cyclopropyl]-1,3-dimethyl-3-[[4-[5-(trifluoromethyl)-1,2,4-oxadiazol-3-yl]phenyl]methyl]urea]
≥ 80%: pest or weed control at 200 ppm [1] | pest or weed control at 200 ppm [2] | inhibition of growth at 20 ppm [3]
